Results reported in patent US12679839B2, “Cyclin-dependent kinase 7 (CDK7) non-covalent inhibitors” (JANSSEN PHARMACEUTICA NV, priority 2020, dated 2026).

Legend:
[1] = biological target: T1, CDK7/Cyclin H/MAT-1 complex (Homo sapiens, UniProt P50613); assay: Absorbance kinetic assay (20 nM CDK7/Cyclin H/MAT-1 complex); format: biochemical; conditions: for IC50: read-out: CDK7 (20 nM) pIC50 (converted)
T1 construct: Human CDK7 (amino acids 1-346); His6 (N); TEV protease cleavage site (N); made in house; host or cells: baculovirus-SF9 insect cells
T1 sequence (P50613 whole entry, the tested form may be a part): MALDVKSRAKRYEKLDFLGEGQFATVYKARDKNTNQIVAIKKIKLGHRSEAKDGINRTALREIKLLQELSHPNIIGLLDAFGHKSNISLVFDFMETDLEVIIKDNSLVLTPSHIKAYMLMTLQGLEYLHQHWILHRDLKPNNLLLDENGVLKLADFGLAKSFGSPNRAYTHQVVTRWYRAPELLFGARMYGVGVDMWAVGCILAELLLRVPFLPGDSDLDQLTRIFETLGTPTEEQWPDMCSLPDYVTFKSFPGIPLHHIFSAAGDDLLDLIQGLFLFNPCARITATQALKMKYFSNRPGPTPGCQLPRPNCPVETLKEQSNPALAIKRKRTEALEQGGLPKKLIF
T1 sequence (P51946 whole entry partner, the tested form may be a part): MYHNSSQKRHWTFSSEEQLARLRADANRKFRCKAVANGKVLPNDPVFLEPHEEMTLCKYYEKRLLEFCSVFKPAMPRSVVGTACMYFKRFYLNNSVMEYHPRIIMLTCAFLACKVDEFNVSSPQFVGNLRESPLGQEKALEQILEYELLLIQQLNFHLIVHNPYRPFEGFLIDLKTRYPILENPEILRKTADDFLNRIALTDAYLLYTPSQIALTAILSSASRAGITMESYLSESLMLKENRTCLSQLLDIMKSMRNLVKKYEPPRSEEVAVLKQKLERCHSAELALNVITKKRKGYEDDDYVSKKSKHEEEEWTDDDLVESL
T1 sequence (P51948 whole entry partner, the tested form may be a part): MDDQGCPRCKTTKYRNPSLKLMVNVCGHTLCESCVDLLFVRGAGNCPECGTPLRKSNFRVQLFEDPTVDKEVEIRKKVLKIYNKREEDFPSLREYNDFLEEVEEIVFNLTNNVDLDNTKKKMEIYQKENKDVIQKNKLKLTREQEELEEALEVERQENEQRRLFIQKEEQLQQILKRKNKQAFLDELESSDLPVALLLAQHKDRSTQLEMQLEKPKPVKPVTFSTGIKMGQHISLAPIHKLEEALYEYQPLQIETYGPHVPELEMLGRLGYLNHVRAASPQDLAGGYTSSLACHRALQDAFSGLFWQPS
Experimental: Human CDK7 (amino acids 1-346) containing an N-terminal His6-tag followed by a tobacco etch virus (TEV) protease cleavage site, human MAT1 (amino acids 1-309) and human cyclin H (amino acids 1-323) were co-expressed in the baculovirus-SF9 insect cell expression system to generate a trimeric complex. Cell pellets were collected 72 h post-infection and were resuspended by Dounce homogenization in 20 mM Hepes-NaOH (pH 8.0), 300 mM NaCl, 10% glycerol, 2 mM dithiothreitol DTT), and 20 mM Imidazole supplemented with cOmplete™ Protease Inhibitor Cocktail (Roche) and 25 U/mL Benzonase® Nuclease HC according to the manufacturer's instructions. Cells were lysed by passing through a Microfluidics M110Y Microfluidizer 3 times at 600 kPa followed by centrifugation at 38,000×g at 4° C. for 1 hour. The supernatant was loaded onto a pre-equilibrated HisTrap HP column and eluted in 20 mM Hepes-NaOH (pH 8.0), 50 mM NaCl, 10% glycerol, 2 mM DTT, and 400 mM Imidazole. The eluate was further purified by gel filtration on a Superdex S200 16/60 column and eluted with 20 mM Hepes-NaOH (pH 7.5), 50 mM NaCl, 10% Glycerol, 2 mM DTT. Fractions containing a trimeric complex of CDK7, cyclin H, and MAT1 in a 1:1:1 ratio were pooled and concentrated to 3 mg/mL in a 10 kDa MWCO concentrator, and diluted to a final concentration of 1.6 mg/mL in 11.1 mM Hepes-NaOH (pH 8.0), 27.8 mM NaCl, 1.1 mM DTT and 50% glycerol. […]
Absorbance Kinetic Assay (20 nM CDK7/Cyclin H/MAT-1 Complex)
CDK7 complex catalyzes the ATP-dependent phosphorylation of a peptide substrate CDK7/9-tide that is derived from RNA Pol II to produce phosphorylated peptide and ADP. The kinase reaction product ADP was converted to lactate and NAD^+ in the presence of phosphoenol pyruvate (PEP), NADH and coupling enzymes lactate dehydrogenase (LDH) and pyruvate kinase (PK). CDK7 complex catalytic activity was measured by following the absorbance intensity continuously at 340 nm that corresponds with the depletion of NADH.
Absorbance at 340 nm was followed kinetically at an interval of 2 minutes for 8 hours.
The assay was carried out with 100 μl reaction volume per well in a 384-well plate that was pre-spotted nanoliter volume of compounds by LabCyte Echo 555. Compound dilution plates were made by 2-fold (could vary upon necessity) dilution in DMSO for 11 concentrations plus a DMSO control of uninhibited reaction. 2× substrate and coupling reagent mixture was added to the assay plate followed by an addition of an equal volume of 40 nM CDK7/Cyclin H/MAT-1 complex. After mixing, assay plates were spun at 2000 rpm for 3 minutes and then transferred to the plate reader for data collection.
For reversible inhibitors, the absorbance reaction progress curves were linear. The steady-state rate was derived from the slope of the linear curves. The following equation is applied to determine percent inhibition.
[formula] • νo=max rate (uninhibited rate) • νi=inhibited rate
The IC50 value is calculated by the following equation:
(§1) [formula] where νo is the rate in the absence of inhibitor, νmin is the rate at highest inhibitor concentration, and h is the Hill coefficient. Flint Assay (5 nM CDK7/Cyclin H/MAT-1 Complex)

[2] = biological target: T1, CDK7/Cyclin H/MAT-1 complex; assay: Flint assay, end-point fluorescence (5 nM CDK7/Cyclin H/MAT-1 complex); format: biochemical; conditions: read-out: CDK7 (5 nM) pIC50 (converted)
Experimental: Human CDK7 (amino acids 1-346) containing an N-terminal His6-tag followed by a tobacco etch virus (TEV) protease cleavage site, human MAT1 (amino acids 1-309) and human cyclin H (amino acids 1-323) were co-expressed in the baculovirus-SF9 insect cell expression system to generate a trimeric complex. Cell pellets were collected 72 h post-infection and were resuspended by Dounce homogenization in 20 mM Hepes-NaOH (pH 8.0), 300 mM NaCl, 10% glycerol, 2 mM dithiothreitol DTT), and 20 mM Imidazole supplemented with cOmplete™ Protease Inhibitor Cocktail (Roche) and 25 U/mL Benzonase® Nuclease HC according to the manufacturer's instructions. Cells were lysed by passing through a Microfluidics M110Y Microfluidizer 3 times at 600 kPa followed by centrifugation at 38,000×g at 4° C. for 1 hour. The supernatant was loaded onto a pre-equilibrated HisTrap HP column and eluted in 20 mM Hepes-NaOH (pH 8.0), 50 mM NaCl, 10% glycerol, 2 mM DTT, and 400 mM Imidazole. The eluate was further purified by gel filtration on a Superdex S200 16/60 column and eluted with 20 mM Hepes-NaOH (pH 7.5), 50 mM NaCl, 10% Glycerol, 2 mM DTT. Fractions containing a trimeric complex of CDK7, cyclin H, and MAT1 in a 1:1:1 ratio were pooled and concentrated to 3 mg/mL in a 10 kDa MWCO concentrator, and diluted to a final concentration of 1.6 mg/mL in 11.1 mM Hepes-NaOH (pH 8.0), 27.8 mM NaCl, 1.1 mM DTT and 50% glycerol.
Compounds with potencies approaching the limit of detection of the assay (IC50≤10 nM) were further assessed in a more sensitive fluorescence end-point assay.
as §1
The continuous absorbance assay was converted to an end-point fluorescence assay following the NADH fluorescence signal decrease at the excitation and emission wavelengths of 340 nm and 440 nm, respectively.
Under the same concentrations of substrates and coupling reagents used in the absorbance assay, the fluorescence assay was performed at a reduced concentration of the CDK7/Cyclin H/MAT-1 complex of 5 nM (final concentration) with a reaction time of 24 hours. The percent of inhibition was calculated by the following equation. Percent of inhibition=(Sample−NC)/(PC−NC)*100 where NC is the mean if negative control (reaction without inhibitor), and PC is the mean of positive control (reaction with complete inhibition).
Dosing curves were fitted using the following equation to obtain IC50: Y=Bottom+(Top−Bottom)/(1+10^((log IC50−X)*Hill slope)) where X=log10 of the compound concentration; top and bottom can be defined by PC and NC respectively. Imaging-Based Cellular RNA PolII Ser5 Phosphorylation Assay

[3] = tested on: RNA polymerase II Serine 5 phosphorylation (Rpb1 CTD), downstream substrate of CDK7; assay: Imaging-based cellular RNA PolII Ser5 phosphorylation assay in A549 cells; format: cell-based, human; conditions: challenged with compound for 3 hours; for IC50: Homo sapiens, A549, 3 h, read-out: pRNA polII Ser5 (A549) pIC50 (converted)
How it was run: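 A549 cells seeded 20 h in DMEM with 1% FBS, then exposed to compound for 3 h at 37 °C; fixed, methanol-permeabilized and immunostained for phospho-Rpb1 CTD Ser5, read by automated imaging. Signal normalized to DMSO (high) and 10 μM LDC4297 (low) controls; IC50 from four-parameter fit of % control vs concentration.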

SMILES | IC50 [1] [µM] | IC50 [2] [µM] | IC50 [3] [µM] | CDK7 (20 nM) pIC50 [1] | pRNA polII Ser5 (A549) pIC50 [3]
C[C@@H]1Cc2cnc(N[C@H]3CCN(C)C(=O)C3)nc2CN1C(=O)[C@H]1CCN(C)C[C@@H]1c1ccccc1 (relative stereo) [Compound 5] | < 0.00977 | 0.00214 |  |  | 
C[C@@H]1Cc2cnc(NCc3ccn(C)n3)nc2CN1C(=O)[C@@H]1CCN(C)C[C@H]1c1ccccc1F (relative stereo) [Compound 130] | 0.038 | 0.00794 |  |  | 
C[C@@H]1Cc2cnc(NCc3ccn(C)n3)nc2CN1C(=O)[C@H]1CCN(C)C[C@@H]1c1ccccc1F (relative stereo) [Compound 131] | 0.0617 | 0.00912 |  |  | 
[2H]C([2H])([2H])N1CC[C@H](C(=O)N2Cc3nc(NC4CCOCC4)ncc3C[C@H]2C)[C@@H](c2ccccc2)C1 (single isomer, unassigned) [Compound 156] |  | 0.00324 | 0.126 |  | 
CO[C@H]1CC[C@H](Nc2cc3c(cn2)C[C@H](C)N(C(=O)[C@H]2CCN(C)C[C@@H]2c2ccccc2)C3)CC1 (single isomer, unassigned) [Compound 172] |  | 0.00741 | 0.186 |  | 
C[C@@H]1Cc2cnc(NCc3ccccn3)nc2CN1C(=O)[C@H]1CCN(C)C[C@@H]1c1ccccc1 [Compound 35] |  |  | 0.2 | 7.78 | 
C[C@@H]1Cc2cnc(NCC3CCOCC3)nc2CN1C(=O)[C@H]1CCN(C)C[C@@H]1c1ccccc1 [Compound 36] |  |  | 2.4 | 7.19 | 
CO[C@H]1CC[C@@H](Nc2ncc3c(n2)CN(C(=O)[C@H]2CCN(C)C[C@@H]2c2ccccc2)[C@H](C)C3)CC1 [Compound 38] |  |  | 1.38 | 7.46 | 
C[C@@H]1Cc2cnc(NC3CCN(S(=O)(=O)C4CC4)CC3)nc2CN1C(=O)[C@H]1CCN(C)C[C@@H]1c1ccccc1 [Compound 41] |  |  | > 10 | 6.18 | 
C[C@@H]1Cc2cnc(NC3CCN(C4CC4)CC3)nc2CN1C(=O)[C@H]1CCN(C)C[C@@H]1c1ccccc1 [Compound 42] |  |  | 1.38 | 7.39 | 
C[C@@H]1Cc2cnc(NCc3cn(C)cn3)nc2CN1C(=O)[C@H]1CCN(C)C[C@@H]1c1ccccc1 [Compound 63] |  |  | > 10 | 7.38 | 
C[C@@H]1Cc2cnc(NC3CCC(F)(F)CC3)nc2CN1C(=O)[C@H]1CCN(C)C[C@@H]1c1ccccc1 [Compound 64] |  |  | 0.141 | >8.01 | 
C[C@@H]1Cc2cnc(NC3CCOCC3)nc2CN1C(=O)[C@@H]1CCN(C)C[C@H]1c1ccc(F)cc1 [Compound 92a] |  |  | > 10 | 5.11 | 
CO[C@H]1CC[C@H](Nc2ncc3c(n2)CN(C(=O)C2CCN(C)CC2c2ccnc(C)c2)[C@H](C)C3)CC1 (stereo partly drawn) [Compound 104] | 0.0129 |  | 1.23 |  | 
C[C@@H]1Cc2cnc(NC3CCOCC3)nc2CN1C(=O)[C@@H]1CCN(C)C[C@H]1c1ccc(Cl)c(F)c1 [Compound 122a] |  |  | > 10 | <5 | 
C[C@@H]1CN(C(=O)[C@H]2CCN(C)C[C@@H]2c2ccccc2)[C@@H](C)c2nc(NC3CCOCC3)ncc21 [Compound 180b] |  |  | 3.89 | 5.65 | 
C[C@@H]1Cc2cnc(NC3CCOCC3)nc2CN1C(=O)N1CCNC[C@@H]1c1ccccc1 [Compound 208] |  |  | 1.23 | 7.66 | 

Continued, values first:

IC50 [1] [µM] | IC50 [2] [µM] | IC50 [3] [µM] | CDK7 (20 nM) pIC50 [1] | pRNA polII Ser5 (A549) pIC50 [3] | SMILES
 |  | 3.89 | 7.03 |  | CC(C)n1cc(CNc2ncc3c(n2)CN(C(=O)[C@H]2CCN(C)C[C@@H]2c2ccccc2)[C@H](C)C3)cn1 [Compound 30]
 |  | ~0.0692 | 7.81 |  | C[C@@H]1Cc2cnc(NC3CCN(C(=O)CC4CC4)CC3)nc2CN1C(=O)[C@H]1CCN(C)C[C@@H]1c1ccccc1 [Compound 31]
 |  | 0.372 | 7.9 |  | C[C@@H]1Cc2cnc(NCc3c(F)cccc3F)nc2CN1C(=O)[C@H]1CCN(C)C[C@@H]1c1ccccc1 [Compound 32]
 |  | 0.162 | 7.88 |  | C[C@@H]1Cc2cnc(NC3CCN(C(=O)C4CC4)CC3)nc2CN1C(=O)[C@H]1CCN(C)C[C@@H]1c1ccccc1 [Compound 33]
 |  | 0.275 | 7.94 |  | C[C@@H]1Cc2cnc(NCC3CC3)nc2CN1C(=O)[C@H]1CCN(C)C[C@@H]1c1ccccc1 [Compound 34]
0.0145 |  | 2.4 |  |  | C[C@@H]1Cc2cnc(NC[C@H]3CCCO3)nc2CN1C(=O)[C@H]1CCN(C)C[C@@H]1c1ccccc1 [Compound 68]
 |  | 4.47 | 7.67 |  | Cc1cc(C2CN(C)CCC2C(=O)N2Cc3nc(NC4CCOCC4)ncc3C[C@H]2C)ccn1 (stereo partly drawn) [Compound 101]
 |  | > 10 | 5.89 |  | C[C@@H]1Cc2cnc(NC3CCOCC3)nc2CN1C(=O)[C@@H]1CCN(C)C[C@H]1C(F)(F)F [Compound 140a]
 |  |  | <5 | ~5.23 | CO[C@H]1CC[C@H](Nc2cc3c(cn2)C[C@H](C)N(C(=O)[C@@H]2CCN(C)C[C@H]2c2cccc(C)c2)C3)CC1 [Compound 177b]
 |  | 0.513 | 7.89 |  | CN1CCN(C(=O)N2Cc3nc(NC4CCOCC4)ncc3CC2(C)C)[C@@H](c2ccccc2)C1 [Compound 205]
